Measurements as given in publication PMC4459817, “Vasculotide reduces endothelial permeability and tumor cell extravasation in the absence of binding to or agonistic activation of Tie2” (EMBO Molecular Medicine, 2015).

System: Tie2 in lung, kidney, liver homogenates
Assay: in vivo Tie2 phosphorylation in liver, lungs, kidneys
Parameters: species or system mouse
Experimental: Tumor-free mice were treated for 1 week with either vehicle, VT (250 ng/2 days), SU (60 mg/kg/day), or VT+SU and then sacrificed 5 h after their last doses of treatment. Tissue homogenates derived from EC-rich organs (livers, lungs, kidneys) were subjected to Tie2 immunoprecipitation and then immunoblotted for phosphorylated Tie2 (Fig8: ‘p-Tie2’) or total Tie2 (Fig8: ‘Tie2’).
Figure 8 In vivo Vasculotide treatments: effects on Tie2 receptor phosphorylation in vascular-rich organs (liver, lungs, and kidneys) • Healthy non-tumor-bearing mice (n = 8–9 per group) were treated for 1 week with vehicle (Veh); Vasculotide 250 ng/2 days IP (VT); sunitinib 60 mg/kg/day PO (SU); or VT + SU. Tie2 immunoprecipitates from lung, kidney, or liver homogenates were pooled from two mice per treatment group and immunoblotted with an anti-Tie2 antibody (‘Tie2’) or an anti-phosphotyrosine antibody (‘p-Tie2’). • Densitometry analysis of immunoblots from (A). pTie2/Tie2 ratios were internally normalized to the vehicle group within each blot. Means ± SEM and P values (unpaired t-tests) are depicted. Source data are available online for this figure.
5. Bioluminescence imaging (BI) of tumor burden
For in vivo BI: Mice were injected intraperitoneally with 150mg/kg luciferin (Promega) 10 minutes prior to and anesthetized with isofluorane just before luminescent pseudocolor imaging (uniform settings: CCD camera locked at -105 °C, exposure=60s, f/1, subject size=1.5cm, bin=8, FOV=23.2cm, full image correction) using the IVIS 200 Imaging System (Caliper/PerkinElmer). Using the Living Image software (v2.50.1, Xenogen), weekly images were analyzed under uniform color range on grayscale photographic overlay. Total fluxes (photons/sec) were quantified within consistent regions of interest and statistically compared ideally at a timepoint before any deaths have occurred. […]
Quantification procedure involved visual survey of entire tissue sections and tallying of DAB-stained metastatic nodules sizes (# cells) at 20-40X on a Leica DM LB2 Microscope. […]

Compound	Tie2 phosphorylation, sunitinib effect (SU 60 mg/kg/day, stated in Discussion)	ratio of phosphorylated Tie2 relative to total Tie2 (pTie2/Tie2) (1 week, VT 250 ng/2 days IP, SU 60 mg/kg/day PO or VT + SU, liver, lungs, kidneys, n = 8–9, Fig8)	lung-specific pTie2/Tie2 vs. vehicle (VT 250 ng/2 days IP, 1 week, unpaired t-test, Fig8)
CCN(CC)CCNC(=O)c1c(C)[nH]c(/C=C2\C(=O)Nc3ccc(F)cc32)c1C [sunitinib, reference compound]	inhibition of Tie2 phosphorylation	–	–
CHHHRHSF [Vasculotide, 4-armed maleimide-functionalized polyethylene glycol (PEG) backbone to link together four cysteine-capped T7 peptides, that is, CHHHRHSF]	–	did not increase the ratio of phosphorylated Tie2 relative to total Tie2	significantly lower
